Columns and labels:
corneal neovessels = assay: Experimentally induced corneal neovascularization (N-heptanol scrub): PDT closure of corneal neovessels, fluorescein angiography out to 28 days; assay type: in vivo, Sprague Dawley rats; details: corneal neovessels induced by n-heptanol scrub, rats; light dose 20 J/cm^2 at optimal excitation wavelength; optimal drug dose and time interval per compound; grade by corneal fluorescein angiography (neovessel-free area)
Protocol: The chlorin e6molecules were evaluated in a series of preclinical ocular neovessel models, corneal neovascularization, normal choriocapillaris vessels, and choroidal neovascularization. […] The chemical scrub was used to remove the corneal epithelium and stem cells, allowing the neovessels to grow across the entire cornea. PDT was performed at approximately 3 weeks after the chemical scrub when the neovessels formed a uniform network across the cornea. The PDT treatment was applied to the corneal surface with a laser wavelength that was optimized for the given absorption spectrum. The laser energy was coupled through a slit lamp biomicroscope with a slit lamp adapter. A 3.0 mm spot size was used (Area=7.07 mm^2). The light dose delivered was varied from 5-25 J/cm^2. The efficacy of neovessel closure was evaluated by measuring the area of treated cornea that remained neovessel-free out to 28 days following PDT. Accurate area measurements were taken using fluorescein angiography and measuring the area of neovessel-free cornea.

choriocapillaris = assay: Normal choriocapillaris rabbit model: PDT vessel closure out to 28 days, fluorescein angiography; assay type: in vivo; details: pigmented rabbit, intravenous, light dose 20 J/cm^2, optimal drug dose and time interval per compound, grade by fluorescein angiography
Protocol: The chlorin e6molecules were evaluated in a series of preclinical ocular neovessel models, corneal neovascularization, normal choriocapillaris vessels, and choroidal neovascularization.
Selected chlorin e6 molecules were also evaluated in a normal choriocapillaris model in the pigmented rabbit. […] The selected photosensitizers were administered intravenously at varying drug doses, the light dose was set constant at 20 J/cm^2, and the time interval was varied from 5-30 minutes between drug and light administration. Two PDT treatment areas were placed on the fundus of each eye in each rabbit. Fluorescein angiography was used to evaluate vessel closure following PDT out to 28 days.

[1] = test system: choroidal neovascularization lesions; assay: Laser-induced choroidal neovascularization (CNV) model: PDT closure of CNV lesions, fluorescein angiography and histopathology; assay type: in vivo, rats
Protocol: Two of the chlorin e6molecules, (39) and (106), were evaluated in a laser-induced choroidal neovascularization (CNV) model in rats. Laser photocoagulation was used to stimulate choroidal neovessel growth on the fundus of the rat (E. T. Dobi, C. Puliafito, M. A. Destro, “A new model of experimental choroidal neovascularization in the rat”, Arch. Ophthalmol. 1989; 107: 264-269). The PDT treatments were performed approximately 4 weeks after the laser photocoagulation, which was when the choroidal neovascularization lesions were fully developed. The lesions were PDT treated using a 1.2 mm spot which covered the entire CNV lesion. Fluorescein angiography and histopathology were used to evaluate the CNV closure.

SMILES | Extent of neovessel closure at 28 days after treatment (corneal neovessels) | Closure at 28 Days (choriocapillaris) | CNV closure (fluorescein angiography) ([1]; 0.8 & 1.6 μmoles/kg, 10-20 minutes time interval post injection, 7 days after PDT) | CNV closure (fluorescein angiography) ([1]; 0.75 μmoles/kg, 20 minutes time interval post injection, 7 days post PDT)
C=Cc1c(C)c2cc3nc(c(CC(=O)OC)c4[nH]c(cc5nc(cc1[nH]2)C(C)=C5CC)c(C)c4C(=O)NCCCO)C(CCC(=O)OC)C3C (centres unmarked) [Compound 30, 3-[[(3-hydroxypropyl)amino]carbonyl]-13-ethenyl-18-ethyl-7,8-dihydro-5-(2-methoxy-2-oxoethyl)-2,8,12,17-tetramethyl-21H, 23H-Porphine-7-propionic acid, methyl ester] | 2 (2 = 1.1-2.0 mm^2) | 3 (3 = 51-75%) |  | 
C=Cc1c(C)c2cc3nc(c(CC(=O)OC)c4[nH]c(cc5nc(cc1[nH]2)C(C)=C5CC)c(C)c4C(=O)NCCCOC(C)=O)C(CCC(=O)OC)C3C (centres unmarked) [Compound 34, 3-[[(3-acetoxypropyl)amino]carbonyl]-13-ethenyl-18-ethyl-7,8-dihydro-5-(2-methoxy-2-oxoethyl)-2,8,12,17-tetramethyl-21H, 23H-Porphine-7-propionic acid, methyl ester] | 1 (1 = 0.21-1.0 mm^2) | 3 (3 = 51-75%) |  | 
C=Cc1c(C)c2cc3nc(c(CC(=O)OC)c4[nH]c(cc5nc(cc1[nH]2)C(C)=C5CC)c(C)c4C(=O)NCCOCCO)C(CCC(=O)OC)C3C (centres unmarked) [Compound 39, 3-[[(5-hydroxy-3-oxa-pentyl)amino]carbonyl]-13-ethenyl-18-ethyl-7,8-dihydro-5-(2-methoxy-2-oxoethyl)-2,8,12,17-tetramethyl-21H, 23H-Porphine-7-propionic acid, methyl ester] | 1 (1 = 0.21-1.0 mm^2) | 4 (4 > 75%) | closed the CNV lesion | 
C=Cc1c(C)c2cc3nc(c(CCO)c4[nH]c(cc5nc(cc1[nH]2)C(C)=C5CC)c(C)c4C(=O)NCCOCCO)C(CCCO)C3C (centres unmarked) [Compound 43, 7-(3-hydroxypropyl)-3-[[(5-hydroxy-3-oxa-pentyl)amino]carbonyl]-13-ethenyl-18-ethyl-7,8-dihydro-5-(2-hydroxyethyl)-2,8,12,17-tetramethyl-21H, 23H-Porphine] | 1 (1 = 0.21-1.0 mm^2) |  |  | 
C=Cc1c(C)c2cc3nc(c(CC(=O)OC)c4[nH]c(cc5nc(cc1[nH]2)C(C)=C5CC)c(C)c4C(=O)NCCOCCOC(C)=O)C(CCC(=O)OC)C3C (centres unmarked) [Compound 45, 3-[[(5-acetoxy-3-oxa-pentyl)amino]carbonyl]-13-ethenyl-18-ethyl-7,8-dihydro-5-(2-methoxy-2-oxoethyl)-2,8,12,17-tetramethyl-21H, 23H-Porphine-7-propionic acid, methyl ester] | 1 (1 = 0.21-1.0 mm^2) | 3 (3 = 51-75%) |  | 
CCC1=C(C)c2cc3[nH]c(cc4nc(c(CC(=O)OC)c5[nH]c(cc1n2)c(C)c5C(=O)NCCCO)C(CCC(=O)OC)C4C)c(C)c3C(C)=O (centres unmarked) [Compound 101, 3-[[(3-hydroxypropyl]amino]carbonyl]-13-acetyl-18-ethyl-7,8-dihydro-5-(2-methoxy-2-oxoethyl)-2,8,12,17-tetramethyl-21H, 23H-Porphine-7-propionic acid, methyl ester] | 0 (0 = 0-0.2 mm^2) |  |  | 
CCC1=C(C)c2cc3[nH]c(cc4nc(c(CC(=O)OC)c5[nH]c(cc1n2)c(C)c5C(=O)NCCOCCO)C(CCC(=O)OC)C4C)c(C)c3C(C)=O (centres unmarked) [Compound 106, 3-[[(5-hydroxy-3-oxa-pentyl)amino]carbonyl]-13-acetyl-18-ethyl-7,8-dihydro-5-(2-methoxy-2-oxoethyl)-2,8,12,17-tetramethyl-21H, 23H-Porphine-7-propionic acid, methyl ester] | 1 (1 = 0.21-1.0 mm^2) | 4 (4 > 75%) |  | demonstrated CNV closure
